Measurements: patent US20230322761A1, “DEGRADATION OF BRUTON'S TYROSINE KINASE (BTK) BY CONJUGATION OF BTK INHIBITORS WITH E3 LIGASE LIGAND AND METHODS OF USE” (BEIGENE, LTD., priority 2020, published 2023)

Target: T1, BTK (Homo sapiens, UniProt Q06187)
T1 construct: endogenous in cells; host or cells: TMD-8 cells
Test: BTK degradation in TMD-8 cells, HTRF assay after 6 h treatment
Type: cell-based
Conditions: IC50 (DC50) of BTK degradation
Method in brief: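 TMD-8 cells treated for 6 h with 8 compound doses in 6-fold dilution steps from a 1 mM 500× DMSO stock (0.2% DMSO), then lysed 30 min at room temperature. BTK in lysate detected by HTRF (665/620 nm) after overnight antibody incubation; DC50 from four-parameter curve fit.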

T1 sequence (Q06187 whole entry): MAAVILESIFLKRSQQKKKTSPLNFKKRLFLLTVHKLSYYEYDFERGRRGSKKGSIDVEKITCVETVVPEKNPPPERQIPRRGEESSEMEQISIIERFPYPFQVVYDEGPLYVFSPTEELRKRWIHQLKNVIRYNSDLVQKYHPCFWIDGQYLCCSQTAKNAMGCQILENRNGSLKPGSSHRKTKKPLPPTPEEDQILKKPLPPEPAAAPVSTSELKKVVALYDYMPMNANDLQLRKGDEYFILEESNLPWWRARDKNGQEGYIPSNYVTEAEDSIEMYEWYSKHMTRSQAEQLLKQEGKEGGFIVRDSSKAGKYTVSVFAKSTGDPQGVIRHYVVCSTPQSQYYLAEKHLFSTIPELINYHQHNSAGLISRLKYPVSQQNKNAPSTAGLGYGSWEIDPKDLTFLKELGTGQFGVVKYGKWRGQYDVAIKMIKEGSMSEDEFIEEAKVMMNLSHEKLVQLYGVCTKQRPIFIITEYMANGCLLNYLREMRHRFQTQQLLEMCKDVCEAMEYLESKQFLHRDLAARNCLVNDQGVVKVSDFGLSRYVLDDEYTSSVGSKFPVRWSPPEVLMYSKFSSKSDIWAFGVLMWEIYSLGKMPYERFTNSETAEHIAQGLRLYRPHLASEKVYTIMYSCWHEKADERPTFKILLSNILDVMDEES

Compound | DC50
Cc1cc(-c2n[nH]c3ncc(-c4ccc(N5CCC(COc6ccc(N7CCC(=O)NC7=O)cc6)CC5)cc4)cc23)ccc1[C@@H](C)NC(=O)c1noc(C(C)(C)C)n1 [Example 187, (R)-5-(tert-butyl)-N-(1-(4-(5-(4-(4-((4-(2,4-dioxotetrahydropyrimidin-1(2H)-yl)phenoxy)methyl)piperidin-1-yl)phenyl)-1H-pyrazolo[3,4-b]pyridin-3-yl)-2-methylphenyl)ethyl)-1,2,4-oxadiazole-3-carboxamide] | 9.56 nM
Cc1cc(-c2n[nH]c3ncc(-c4ccc(N5CCN(CC(F)(F)c6ccc(C7CCC(=O)NC7=O)cc6)CC5)cc4)cc23)ccc1[C@@H](C)NC(=O)c1nc(C(C)(C)C)no1 (stereo partly drawn) [Example 188, 3-(tert-butyl)-N-((1R)-1-(4-(5-(4-(4-(2-(4-(2,6-dioxopiperidin-3-yl)phenyl)-2,2-difluoroethyl)piperazin-1-yl)phenyl)-1H-pyrazolo[3,4-b]pyridin-3-yl)-2-methylphenyl)ethyl)-1,2,4-oxadiazole-5-carboxamide] | 9.91 nM
Cc1cc(-c2n[nH]c3ncc(-c4ccc(N5CC6CN(CCc7ccc(C8CCC(=O)NC8=O)c(C)n7)CC6C5)cn4)cc23)ccc1[C@@H](C)NC(=O)c1noc(C(C)(C)C)n1 (stereo partly drawn) [Example 189, 5-(tert-butyl)-N-((1R)-1-(4-(5-(5-(5-(2-(5-(2,6-dioxopiperidin-3-yl)-6-methylpyridin-2-yl)ethyl)hexahydropyrrolo[3,4-c]pyrrol-2(1H)-yl)pyridin-2-yl)-1H-pyrazolo[3,4-b]pyridin-3-yl)-2-methylphenyl)ethyl)-1,2,4-oxadiazole-3-carboxamide] | 23.6 nM
Cc1cc(N2CCC(CN3CCN(c4ccc(-c5cnc6[nH]nc(-c7cc(CO)c([C@@H](C)NC(=O)c8nc(C(C)(C)C)no8)cc7F)c6c5)cc4)CC3)CC2)ccc1N1CCC(=O)NC1=O [Example 190, (R)-3-(tert-butyl)-N-(1-(4-(5-(4-(4-((1-(4-(2,4-dioxotetrahydropyrimidin-1(2H)-yl)-3-methylphenyl)piperidin-4-yl)methyl)piperazin-1-yl)phenyl)-1H-pyrazolo[3,4-b]pyridin-3-yl)-5-fluoro-2-(hydroxymethyl)phenyl)ethyl)-1,2,4-oxadiazole-5-carboxamide] | 6.11 nM
Cc1cc(-c2n[nH]c3ncc(-c4ccc(N5CCN(CC6CCN(c7ccc(C8CCC(=O)NC8=O)cc7)C6)CC5)cc4)cc23)ccc1[C@@H](C)NC(=O)c1noc(C(C)(C)C)n1 (stereo partly drawn) [Example 191, 5-(tert-butyl)-N-((1R)-1-(4-(5-(4-(4-((1-(4-(2,6-dioxopiperidin-3-yl)phenyl)pyrrolidin-3-yl)methyl)piperazin-1-yl)phenyl)-1H-pyrazolo[3,4-b]pyridin-3-yl)-2-methylphenyl)ethyl)-1,2,4-oxadiazole-3-carboxamide] | 7.34 nM
Cc1cc(-c2n[nH]c3ncc(-c4ccc(N5CCN(CC(F)(F)c6ccc(C7CCC(=O)NC7=O)cn6)CC5)cc4)cc23)ccc1[C@@H](C)NC(=O)c1nc(C(C)(C)C)no1 (stereo partly drawn) [Example 192, 3-(tert-butyl)-N-((1R)-1-(4-(5-(4-(4-(2-(5-(2,6-dioxopiperidin-3-yl)pyridin-2-yl)-2,2-difluoroethyl)piperazin-1-yl)phenyl)-1H-pyrazolo[3,4-b]pyridin-3-yl)-2-methylphenyl)ethyl)-1,2,4-oxadiazole-5-carboxamide] | 4.03 nM
Cc1cc(-c2n[nH]c3ncc(-c4ccc(N5CCN(CC(F)(F)c6ccc(C7CCC(=O)NC7=O)cn6)CC5)cc4)cc23)ccc1[C@@H](C)NC(=O)c1noc(C(C)(C)C)n1 (stereo partly drawn) [Example 193, 5-(tert-butyl)-N-((1R)-1-(4-(5-(4-(4-(2-(5-(2,6-dioxopiperidin-3-yl)pyridin-2-yl)-2,2-difluoroethyl)piperazin-1-yl)phenyl)-1H-pyrazolo[3,4-b]pyridin-3-yl)-2-methylphenyl)ethyl)-1,2,4-oxadiazole-3-carboxamide] | 3.06 nM
Cc1cc(-c2n[nH]c3ncc(-c4ccc(N5CCN(CCc6ccc(N7CCC(=O)NC7=O)cn6)CC5)cc4)cc23)ccc1[C@@H](C)NC(=O)c1noc(C(C)(C)C)n1 [Example 194, (R)-5-(tert-butyl)-N-(1-(4-(5-(4-(4-(2-(5-(2,4-dioxotetrahydropyrimidin-1(2H)-yl)pyridin-2-yl)ethyl)piperazin-1-yl)phenyl)-1H-pyrazolo[3,4-b]pyridin-3-yl)-2-methylphenyl)ethyl)-1,2,4-oxadiazole-3-carboxamide] | 1.69 nM
COc1nc(CCN2CCN(c3ccc(-c4cnc5[nH]nc(-c6ccc([C@@H](C)NC(=O)c7nc(C(C)(C)C)no7)c(C)c6)c5c4)cc3)CC2)ccc1C1CCC(=O)NC1=O (stereo partly drawn) [Example 195, 3-(tert-butyl)-N-((1R)-1-(4-(5-(4-(4-(2-(5-(2,6-dioxopiperidin-3-yl)-6-methoxypyridin-2-yl)ethyl)piperazin-1-yl)phenyl)-1H-pyrazolo[3,4-b]pyridin-3-yl)-2-methylphenyl)ethyl)-1,2,4-oxadiazole-5-carboxamide] | 6.13 nM
Cc1cc(-c2n[nH]c3ncc(-c4ccc(N5CCN(CCn6nc(C)c(C7CCC(=O)NC7=O)c6C)CC5)cc4)cc23)ccc1[C@@H](C)NC(=O)c1nc(C(C)(C)C)no1 (stereo partly drawn) [Example 196, 3-(tert-butyl)-N-((1R)-1-(4-(5-(4-(4-(2-(4-(2,6-dioxopiperidin-3-yl)-3,5-dimethyl-1H-pyrazol-1-yl)ethyl)piperazin-1-yl)phenyl)-1H-pyrazolo[3,4-b]pyridin-3-yl)-2-methylphenyl)ethyl)-1,2,4-oxadiazole-5-carboxamide] | 1.05 nM
Cc1cc(-c2n[nH]c3ncc(-c4ccc(C5CCN(C6CC(c7ccc(C8CCC(=O)NC8=O)cc7)C6)CC5)nc4)cc23)ccc1[C@@H](C)NC(=O)c1noc(C(C)(C)C)n1 (stereo partly drawn) [Example 197, 5-(tert-butyl)-N-((1R)-1-(4-(5-(6-(1-(3-(4-(2,6-dioxopiperidin-3-yl)phenyl)cyclobutyl)piperidin-4-yl)pyridin-3-yl)-1H-pyrazolo[3,4-b]pyridin-3-yl)-2-methylphenyl)ethyl)-1,2,4-oxadiazole-3-carboxamide] | 1.08 nM
Cc1cc(-c2n[nH]c3ncc(-c4ccc(N5CCC(COc6ccc(OC7CCC(=O)NC7=O)cc6)CC5)cc4)cc23)ccc1[C@@H](C)NC(=O)c1noc(C(C)(C)C)n1 (stereo partly drawn) [Example 198, 5-(tert-butyl)-N-((1R)-1-(4-(5-(4-(4-((4-((2,6-dioxopiperidin-3-yl)oxy)phenoxy)methyl)piperidin-1-yl)phenyl)-1H-pyrazolo[3,4-b]pyridin-3-yl)-2-methylphenyl)ethyl)-1,2,4-oxadiazole-3-carboxamide] | 91.4 nM
Cc1cc(-c2n[nH]c3ncc(-c4ccc(N5CCN(CCc6ccc(C7CCC(=O)NC7=O)c(F)c6)CC5)nc4)cc23)ccc1[C@@H](C)NC(=O)c1noc(C(C)(C)C)n1 (stereo partly drawn) [Example 199, 5-(tert-butyl)-N-((1R)-1-(4-(5-(6-(4-(4-(2,6-dioxopiperidin-3-yl)-3-fluorophenethyl)piperazin-1-yl)pyridin-3-yl)-1H-pyrazolo[3,4-b]pyridin-3-yl)-2-methylphenyl)ethyl)-1,2,4-oxadiazole-3-carboxamide] | 5.09 nM
